Data on one molecule can be found in article PMC7196807 (Proceedings of the National Academy of Sciences of the …, 2020).

The test concerns the target hIP6K1 (IP6K1) (Homo sapiens, UniProt Q92551). Briefly: kinase product identified by Dipp1 cocrystal structure. The settings on record: kinase site. It counts as biochemical.

hIP6K1 (IP6K1), sequence (Q92551 whole entry): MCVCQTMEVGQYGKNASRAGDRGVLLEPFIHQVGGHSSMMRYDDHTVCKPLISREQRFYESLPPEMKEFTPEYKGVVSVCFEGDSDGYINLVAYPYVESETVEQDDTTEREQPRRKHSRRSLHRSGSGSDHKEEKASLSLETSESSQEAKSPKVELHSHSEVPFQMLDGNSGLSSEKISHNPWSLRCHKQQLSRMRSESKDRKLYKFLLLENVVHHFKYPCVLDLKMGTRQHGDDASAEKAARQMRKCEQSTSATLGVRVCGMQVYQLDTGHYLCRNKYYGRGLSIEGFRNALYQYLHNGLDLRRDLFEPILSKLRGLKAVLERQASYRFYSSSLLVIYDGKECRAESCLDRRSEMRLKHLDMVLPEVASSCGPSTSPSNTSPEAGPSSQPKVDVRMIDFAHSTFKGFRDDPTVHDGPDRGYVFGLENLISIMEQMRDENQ

In the case of `O=P(O)(O)O[C@H]1[C@@H](OP(=O)(O)O)[C@H](OP(=O)(O)O)[C@@H](OP(=O)(O)OP(=O)(O)O)[C@H](OP(=O)(O)O)[C@H]1OP(=O)(O)O` [5-IP7], the “kinase product identified by Dipp1 cocrystal structure” value is recorded as “IP6K1 IP7 product/DIPP complex confirms the stereomer as unambiguously 5-IP7”.
